“And” between values parts separate entries of the source, which are not always exact repeats. Equal entries are not always repeated. Where two headings read alike, the source gives them in different places.

Assay [1] has as its target T1, cdDHQD (Clostridioides difficile, UniProt Q186A6). The conditions noted are these: 10 µM DHQD, 100 µM compound.
Another assay concerns the target ypDHQD (type II DHQD) (Yersinia pestis, UniProt Q8ZAX1). The assay is described as follows: biochemical.
Another assay has as its target T2, btDHQD (type II DHQD) (Bacteroides thetaiotaomicron, UniProt Q8A3W2).
T2 sequence (Q8A3W2 1-140): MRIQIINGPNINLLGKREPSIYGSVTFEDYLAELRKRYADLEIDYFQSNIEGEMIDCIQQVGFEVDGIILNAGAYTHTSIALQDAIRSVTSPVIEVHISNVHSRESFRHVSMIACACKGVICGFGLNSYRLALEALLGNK
Briefly: btDHQD inhibition, primary screen DHQD assay.

The next assay addresses T3, vcDHQD (type II DHQD) (Vibrio cholerae, UniProt Q9KV60).
T3 sequence (Q9KV60 1-150): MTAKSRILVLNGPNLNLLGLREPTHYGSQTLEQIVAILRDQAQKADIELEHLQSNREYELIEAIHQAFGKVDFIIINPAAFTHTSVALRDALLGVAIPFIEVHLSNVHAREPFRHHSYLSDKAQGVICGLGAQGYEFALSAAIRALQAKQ
Briefly: vcDHQD inhibition, DHQD panel. It is filed as biochemical.

Assay [2] addresses T4, seDHQD (Salmonella typhimurium, UniProt P58687). Briefly: NMR line broadening with seDHQD. The following applies: similar compound concentrations; 10 µM DHQD, 100 µM compound. It is filed as binding, Salmonella enterica. An excerpt: Supplementary Figure S2. NMR data for binding of compounds 1 and 2 to cdDHQD. (A) Line broadening observed for compound 1 upon addition of cdDHQD or seDHQD. (B) Line broadening observed for compound 2 upon addition of cdDHQD or seDHQD. […] Line widths were estimated using NMRDraw (Delaglio et al., 1995).

Assay [3] concerns the target T1, cdDHQD. Briefly: biochemical.
In assay [4] the target is T1, cdDHQD. The assay is described as follows: biochemical. Also noted: species or system Clostridium difficile.
Assay [5] concerns the target T1, cdDHQD. The assay is described as follows: biochemical. The conditions noted are these: Kd for binding to cdDHQD (WaterLOGSY), NMR titration; PBS pH 7.2, 25°C.
Assay [6] addresses T4, seDHQD. The assay is described as follows: WaterLOGSY NMR titration with seDHQD. The conditions noted are these: Kd for binding to seDHQD (WaterLOGSY), PBS pH 7.2, 25°C.
Where [7] appears, read: Kd for binding to cdDHQD (line broadening, double reciprocal plot), NMR, PBS pH 7.2, 25°C.
[8] abbreviates: Kd for binding to cdDHQD, fit of single resonances, NMR titration, two different resonances per compound (Figure 3A, 3B).
Setting [9] is: type II DHQD, read-out: IC50 vcDHQD.
Where [10] appears, read: 200 µM compound, substrate up to 5 mM.

T4 sequence (P58687 whole entry): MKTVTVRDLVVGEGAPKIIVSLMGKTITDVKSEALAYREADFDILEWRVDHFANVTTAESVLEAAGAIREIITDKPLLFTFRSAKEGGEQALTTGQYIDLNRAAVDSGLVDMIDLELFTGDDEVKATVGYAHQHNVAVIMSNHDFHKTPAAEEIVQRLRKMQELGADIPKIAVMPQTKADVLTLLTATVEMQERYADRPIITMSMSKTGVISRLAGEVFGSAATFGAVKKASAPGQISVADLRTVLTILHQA
Chain of ypDHQD (type II DHQD) (Q8ZAX1 whole entry, looked up): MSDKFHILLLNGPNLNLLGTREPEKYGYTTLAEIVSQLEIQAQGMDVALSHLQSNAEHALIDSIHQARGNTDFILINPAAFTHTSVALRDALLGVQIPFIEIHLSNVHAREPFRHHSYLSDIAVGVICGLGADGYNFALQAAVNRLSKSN
T1 sequence (Q186A6 whole entry): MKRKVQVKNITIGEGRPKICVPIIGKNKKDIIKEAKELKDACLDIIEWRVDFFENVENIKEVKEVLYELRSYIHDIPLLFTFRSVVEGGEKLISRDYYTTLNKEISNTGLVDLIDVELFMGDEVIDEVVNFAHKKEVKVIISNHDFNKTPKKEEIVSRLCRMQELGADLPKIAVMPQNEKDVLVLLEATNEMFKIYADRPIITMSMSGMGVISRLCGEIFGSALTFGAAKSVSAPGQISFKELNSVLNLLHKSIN

The IC50 is the concentration needed to halve the response being measured. For orientation: Kd means the concentration at which binding is half-saturated. For the compound `COc1ccc2nc(NS(=O)(=O)c3cc(Cl)ccc3Cl)sc2c1` [Compound 2], the “line broadening of compound resonances with cdDHQD” value at cdDHQD [1] is more than 6 Hz. Further, the concentration for half-maximal inhibition (IC50) against ypDHQD (type II DHQD), against btDHQD (type II DHQD) and at vcDHQD (type II DHQD) was more than 200 µM each time. On seDHQD [2], the “line broadening of compound resonances with seDHQD” value is on record as less than 1 Hz. Further, the Kd was approximately 25 µM on cdDHQD [3] (setting [7]); 15 µM and 34 µM at cdDHQD [3] (setting [8]).

What is called Ki is the equilibrium dissociation constant of an inhibitor or competing ligand from its target. Low readings indicate tighter binding, high ones weaker binding. With `O=S(=O)(Nc1nc(-c2ccccc2)cs1)c1cc(Cl)ccc1Cl` [Compound 1], the “line broadening of compound resonances with cdDHQD” value at cdDHQD [1] is recorded as more than 6 Hz. Besides, the IC50 against ypDHQD (type II DHQD), against btDHQD (type II DHQD) and on vcDHQD (type II DHQD) (setting [9]) was more than 200 µM each time. Besides, at cdDHQD [4], the Ki fell in the range of 11 to 15 µM. Moreover, the “line broadening of compound resonances with seDHQD” value on seDHQD [2] was less than 1 Hz. In addition, the Kd at cdDHQD [3] (setting [7]) is ~27 µM and ~25 µM; on cdDHQD [3] (setting [8]), 35 µM and 18 µM.

As to `O=C(O)c1ccccc1NC(=O)c1csc2c1CCCC2` [Compound 3], the Kd on cdDHQD [5] was ~65 µM and 67 µM; at seDHQD [6], ~400 µM and ~390 µM. For the same compound, the IC50 against ypDHQD (type II DHQD), on btDHQD (type II DHQD) and on vcDHQD (type II DHQD) (setting [9]) was more than 200 µM throughout. The Ki at cdDHQD [4] fell in the range of 19 to 22 µM. For the same compound, the “Vmax in presence of inhibitor” value on cdDHQD [4] (setting [10]) was “unchanged”. On cdDHQD [4] (setting [10]), the “increase of apparent Km” value stood at 10 fold. The mechanism of inhibition result at cdDHQD [4] (from Km/Vmax at high substrate) was “competitive”.

The values above are taken from PMC3931744, “Discovery of Selective Inhibitors of the Clostridium difficile Dehydroquinate Dehydratase” (PLoS ONE, 2014).
